Measurements: US7342012B2, “Inhibitors of αLβ2 mediated cell adhesion” (Mitsubishi Tanabe Pharma Corporation, priority 1999, dated 2008)

Row | Structure (SMILES) | melting point
1 | O=C1N(c2cc(Cl)cc(Cl)c2)C(=O)C2(Cc3ccc(-c4cccnc4)cc3)CCCCN12 (centres unmarked) [Example 7, 6-[4-(3-Pyridyl)benzyl]-8-(3,5-dichlorophenyl)-1,8-diazabicyclo[4.3.0]nonane-7,9-dione] | 276.5 °C
2 | O=C1N(c2cc(Cl)cc(Cl)c2)C(=O)C2(Cc3ccc(OC(F)(F)F)cc3)C[C@@H](O)CN12 (stereo in doubt) [Example 268, (5R, 7R)-5-[4-(Trifluoromethoxy)benzyl]-3-(3,5-dichlorophenyl)-7-hydroxy-1,3-diazabicyclo[3.3.0]octane-2,4-dione] | 50.4 °C
